Common to all, as to type: cell-based, human
Experiment [1] has as its system hADSCs. Kind of experiment: Three-stage conversion of hADSCs into hCiPSCs (methods of EXAMPLE 1), numbers of hCiPSC colonies. From the text:
FIG. 1 illustrates a schematic of an exemplary method for converting human somatic cells into pluripotent stem cells. The method has 3 stages. During any of the 3 stages, any cell can proliferate and give rise to progeny cells. In stage 1, a first population of cells comprising somatic cells are contacted with a first composition for about 4-12 days. The first population of cells can comprise somatic cells (e.g., fibroblasts or primary human adult adipose derived mesenchymal stromal cells (hADSCs)). During and/or subsequent to contacting the first composition, at least a subset of the cells of the first population of cells or the progenies thereof are converted into a second population of cells. The second population of cells can comprise epithelial-like cells. In stage 2, the second population of cells or the progenies thereof are then contacted with a second composition for about 4-16 days. During and/or subsequent to contacting the second composition, at least a subset of the cells of the second population of cells or the progenies thereof are converted into a third population of cells. The third population of cells can comprise intermediate plastic state cells. In stage 3, the third population of cells or the progenies thereof are contacted with a third composition for about 6-12 days. During and/or subsequent to contacting the third composition, at least a subset of the cells of the third population of cells or the progenies thereof are converted into a fourth population of cells.
FIG. 2 illustrates a schematic of an exemplary method for converting human fibroblasts into pluripotent stem cells. The method can comprise 3 stages. During any of the 3 stages, any cell can proliferate and give rise to progeny cells. In stage 1, a first population of cells comprising fibroblasts is contacted with a first composition for about 8-10 days. During and/or subsequent to contacting the first composition, at least a subset of the cells of the first population of cells or the progenies thereof are converted into a second population of cells. The second population of cells can comprise epithelial-like cells. The epithelial-like cells express an increased amount of LIN28A, relative to the first population of cells or their progenies. In stage 2, the second population of cells or the progenies thereof are then contacted with a second composition for about 12-16 days. During and/or subsequent to contacting the second composition, at least a subset of the cells of the second population of cells or the progenies thereof are converted into a third population of cells. The third population of cells can comprise intermediate plastic state cells. The intermediate plastic state cells express both SALL4 and LIN28A. In stage 3, the third population of cells or the progenies thereof are contacted with a third composition for about 8-10 days. During and/or subsequent to contacting the third composition, at least a subset of the cells of the third population of cells or the progenies thereof are converted into a fourth population of cells. […] The second conversion medium can then be removed from the cells. […] The third stage 3 medium may allow the pluripotent stem cells or the progenies thereof to proliferate.
(§1) In one experiment, when converting hCiPSCs from somatic cell (e.g., hADSCs), hypoxia with 5% O2 was used in stage 1 conversion. After stage 1 conversion, cells were incubated with 21% O2. The induction medium was changed every 3-4 days. hADSCs were seeded at a density of 1×10^4 cells per well of a 12-well plate in 15% FBS-DMEM medium and would be changed into stage 1 conversion medium the next day. For stage 1 conversion, single layer epithelial-like cells induced from hADSCs would emerge at day 4-6 and approach 100% confluence at day 8-12. Then the medium was changed into stage 2 conversion medium. […]

For experiment [2], the system named is hADSCs. In words: Stage 1 conversion of hADSCs to epithelial-like cells, morphology (FIG. 3). The settings on record: added in stage 1, small-molecule library screen. As for the experimental part: as §1, with “medium. For stage 2 conversion, multi-layered cell colonies appeared after 8-12 days of treatment of the cells with the conversion medium, and these cell colonies would continually grow increasingly large. The medium was changed into stage 3 conversion medium after 16 days of treatment with the stage 2 conversion medium.” for “medium.”
In stage 1, the conversion medium was changed every 3-4 days. hADSCs were seeded at a density of 1×10^4 cells per well of a 12-well plate in 15% FBS-DMEM medium and would be changed into stage I induction medium the next day. […] Conversion into epithelial-like cells can be measured by upregulation of and epithelial cell-related genes. […]

In experiment [3] the test system is hADSCs. Kind of experiment: Example 7 chemical reprogramming of hADSCs, OCT4+ hCiPSC colonies. To be noted: for improving reprogramming efficiency: added in stage 1. The procedure:
The stage 1 induction medium contained Knockout DMEM (Gibco) supplemented with 2% B27 supplement (Gibco), 1% Knockout Serum Replacement (KSR; Gibco), 1% GlutaMAX (Gibco), 1% nonessential amino acids (NEAA; Gibco), 1% penicillin-streptomycin, 50 μg ml-1 Vc2p, 5 mM LiCl, 1 mM nicotinamide, 40 ng ml^−1 BMP4 and the small molecules CHIR-99021 (5 μM), 616452 (10 μM), TTNPB (2 μM), SAG (0.5 μM), EPZ-5676 (2 μM), DZNep (0.05 μM), ruxolitinib (1 μM), VTP50469 (0.5 μM), AKT kinase inhibitor (1 μM), JNK-IN-8 (0.2 μM), SETD2-IN-1 (0.2 μM), AM095 free acid (0.5 μM), WM-8014 (1 μM) and A-485 (0.5 μM).
Stage 2 induction medium contained Knockout DMEM supplemented with 2% B27 supplement, 1% GlutaMAX, 1% NEAA, 1% penicillin-streptomycin, 50 μg ml^−1 Vc2p, 200 ng ml^−1 bFGF and the small molecules CHIR-99021 (5 μM), 616452 (10 μM), TTNPB (2 μM), SAG (0.5 μM), JNK-IN-8 (0.5 μM), EPZ-5676 (2 μM), DZNep (0.2 μM), ruxolitinib (1 μM), BIRB 796 (2 μM), SGC-CBP30 (2 μM), VTP50469 (0.5 μM), 5-Iodotubercidin (0.5 μM), AKT kinase inhibitor (0.2 μM), CX-4945 (1 μM), RA (5 μM) and GSK-3685032 (0.02 μM).
Stage 3 induction medium contained Knockout DMEM supplemented with 2% B27 supplement, 1% GlutaMAX, 1% NEAA, 1% penicillin-streptomycin, 5% KSR, 50 μg ml^−1 Vc2p, 20 ng ml^−1 recombinant human heregulinβ-1 (HRG) and the small molecules CHIR-99021 (1 μM), Y-27632 (10 μM), PD0325901 (1 μM) and SB-590885 (0.5 μM). Knockout DMEM containing supplements and the small molecules mentioned above served as the basal medium for stage 3. For the first 2-3 days of stage 3 induction, valproic acid sodium salt (VPA; 200 μM), tranylcypromine (10 μM), DZNep (0.2 μM), EPZ-5676 (2 μM) and PY-60 (10 μM) were added to the basal medium. For the next 2-3 days, VPA (200 μM) and PY-60 (2 μM) were added to the basal medium. Information on the small molecules, cytokines and other reagents is available in Supplementary Table 4.
Hypoxia with 5% O2 was used for stage 1 induction. After stage 1 induction, the culture was changed to 21% O2.
(1) hADSCs and hASFs were seeded in high-glucose DMEM supplemented with 15% FBS at a density of 1.2-1.4×10^4 cells per well in 12-well plates or 0.6-0.7×10^4 cells per well in 24-well plates. The medium was changed to stage 1 induction medium the next day.
(2) For stage 1 induction, single-layer epithelium-like cells emerged on day 4. When the epithelium-like cells reached ˜100% confluence (usually after 6-8 days of stage 1 induction for hADSCs and 8-10 days for hASFs), the medium was changed to stage 2 induction medium. For the induction of hADSCs in 24-well plates, 1 ml of stage 1 medium was added to each well (2 ml per well for 12-well plates), and there was no need to change the medium during stage 1. For the induction of hASFs, stage 1 medium was replaced with fresh medium on day 6. […]

Consider `CCn1c(-c2nonc2N)nc2c(C#CCO)ncc(OCCCN)c21` [AKT Kinase Inhibitor, 3-[2-(4-amino-1,2,5-oxadiazol-3-yl)-7-(3-aminopropoxy)-1-ethylimidazo[4,5-c]pyridin-4-yl]prop-2-yn-1-ol], for which the reprogramming efficiency entry in the experiment on hADSCs [1] (AKTi and CX4945 included in the stage 2 conversion medium (Base), FIG. 18) is “significantly improved the reprogramming efficiency”. Further, in the experiment with hADSCs [1] (factor removed from the stage 1 conversion medium, FIG. 4), the “numbers of converted hCiPSCs” value is listed as “minimal numbers of converted hCiPSCs”. Besides, the “emergence of epithelial-like colonies” value with hADSCs [2] is “further promoted the emergence epithelial-like colonies”.
`Cc1cc(-c2ccccc2)cc(C(=O)NNS(=O)(=O)c2ccccc2)c1F` [WM8014]: the “screening of chemical libraries targeting histone modifications during chemical reprogramming stage 1” value in the experiment on hADSCs [3] (1 μM screening batch, FIG. 40) was “top candidate”. In the experiment on hADSCs [3], the improving reprogramming efficiency result is reported as “most effective in improving reprogramming efficiency”.
On to `CNC(=O)Nc1ccc2c(c1)CC[C@@]21OC(=O)N(CC(=O)N(Cc2ccc(F)cc2)[C@@H](C)C(F)(F)F)C1=O` [A485], for which the “screening of chemical libraries targeting histone modifications during chemical reprogramming stage 1” value in the experiment with hADSCs [3] (0.5 μM screening batch, FIG. 39) was “top candidate”. Also, in the experiment with hADSCs [3], the improving reprogramming efficiency entry was “most effective in improving reprogramming efficiency”.
Regarding `CC(C)N(C(=O)c1cc(F)ccc1Oc1cncnc1N1CC2(CCN(CC3CCC(NS(C)(=O)=O)CC3)CC2)C1)C(C)C` (centres unmarked) [VTP50469], the “increase of the numbers of converted hCiPSCs” value with hADSCs [1] (added to the stage 2 conversion medium, relative to medium without it, FIGS. 7A-7B) is recorded as “about 7 fold”. Also, the “numbers of converted hCiPSCs” value in the experiment on hADSCs [1] (factor removed from the stage 2 conversion medium, FIG. 17) is listed as “reduced the numbers of converted hCiPSCs”; in the experiment on hADSCs [1] (various combinations supplemented to stage 1 conversion medium comprising CHIR99021, 616452, TTNPB and AKT Kinase Inhibitor, FIG. 5) it was “significantly increase the numbers of converted hCiPSCs”. In addition, the “emergence of epithelial-like colonies” value in the experiment with hADSCs [2] is on record as “further promoted the emergence epithelial-like colonies”.

Source of the values: patent publication US20250340848A1, “METHODS FOR CHEMICAL REPROGRAMMING AND PLURIPOTENT STEM CELLS” (Peking University, priority 2022, published 2025).
